Experimental data reported in publication PMC4887995, “Small molecule dual-inhibitors of TRPV4 and TRPA1 for attenuation of inflammation and pain” (Scientific Reports, 2016).
“Also recorded” adds a separate entry of the source.

How the values were obtained:
[1] = test system: formalin-evoked trigeminal irritant pain; assay: Trigeminal formalin irritant pain model, WT mice; format: in vivo, mouse; settings: 10 mg/kg i.p.; for pain behavior, delayed (late neural) phase: 15 min before 4% formalin, 15–45 min
Description: Figure 7 16-8 and 16-19 effectively attenuate formalin-evoked trigeminal irritant pain. (A) Time-course of nocifensive behavior in WT mice following whisker-pad injection of 4% formalin. The mice were pre-injected (i.p., 10 mg/kg; 15 min before formalin) with GSK205, 16-8 or 16-19. Note effective reduction of nocifensive behavior in the late “neural” phase by compounds 16-8, 16-19, not by GSK205. (B) Cumulative response binned into 3 phases: acute phase (0–5 min), interphase (5–15 min), and late “neural” phase (15–45 min). […] (C) As in (A), but also including Trpv4^−/− mice. Compounds were applied i.p. 15 min before formalin challenge, at 10 mg/kg except established TRPA1 blocker, A967079 (25 mg/kg). Previously-established attenuated nocifensive behavior in early and late phase in Trpv4^−/− mice was recapped, which was reduced further by TRPA1 blocker, A967079. (D) As in (B), plus inclusion of Trpv4^−/− mice. Robust effects of TRPA1-blocker, A967079, were mimicked equi-potently by 16-8 and 16-19 for early phase, and by 16-8 for late phase, partially by 16-19 for late phase. (A,C) show averaged behavioral metrics per time-point, bars in (B,D) represent mean ± SEM; for (D) ^*P < 0.05; ^#P < 0.005, one-way ANOVA; for all panels n = 5–8 mice/group. Implementation of this model was conducted as described previously. Video-taped nocifensive behavior was assessed by investigators blinded to genotype and treatment.

[2] = Compound concentration in organs and plasma by LC-MS/MS; format: in vivo, mouse; settings: 10 mg/kg i.p.
Description: Mice were treated with 10 mg/kg i.p. of the respective inhibitor. Post-euthanasia harvested tissue was frozen in liquid nitrogen and stored at −80 °C for further analysis.
Frozen tissue samples were partially thawed and cut into 1 mm slices, 5–15 mg tissue, 2-fold excess water (mass/vol.), 6-fold excess acetonitrile (16-… compounds) or methanol (GSK205) containing appropriate amount of internal standard, and 2.5 mm zirconia/silica bead (Biospec Products Inc.) were added to 500- μL polypropylene (PP) conical tube, homogenized in a Fast-Prep apparatus (Thermo-Savant) at speed “4” for 20 sec at room temp, and centrifuged at 13,600 g for 5 min at room temp. Depending on the expected concentration range of the measured compound, the supernatant was diluted 1/4–1/20 (in Mobile phase A, see below) and placed in autosampler for LC-MS/MS analysis.
The LC-MS/MS assay for 16-… compounds and GSK205 was developed on an Agilent 1200 series LC system interfaced with Applied Biosystems API 5500QTrap, a hybrid triple quadruple-linear trap MS/MS spectrometer. Analyst (version 1.6.1) software was used for mass parameters tuning, data acquisition, and quantification. LC column: 3 × 4 mm RP C18 (Phenomenex, AJ0-4287) was operated at 35 °C. Mobile phase A: 0.1% formic acid, 2% acetonitrile, in LC/MS-grade water; mobile phase B: acetonitrile; flow rate: 1 mL/min, 1:1 MS/MS:waste split. Run time was 4 min. Diverter valve was used to send flow to MS/MS only between 1.2 and 2.5 min. The elution gradient was: 0–0.5 min, 1%B; 0.5–1.2 min, 1–95%B; 1.2–1.5 min, 95%B; 1.5–1.6 min, 95–1%B. Autosampler was operated at 4 °C; injection volume was kept at 10–50 μL. Electrospray ionization (ESI) source parameters were: positive ionization mode, curtain gas flow = 30, ionization potential = 5500 V, temperature = 500 °C, nebulizing gas 1 flow = 30, nebulizing gas 2 = 30, declustering potential = 20 V. 16-… compounds and GSK205 were individually infused as 100 nM solutions in 50%A/50%B at 10 μL/min flow rate and parameters optimized to provide maximal ion count for “parent” and collision-produced (“daughter”) MS/MS ions. Parent/daughter quantifier [qualifier] ions utilized: GSK205 (401.1/280[370]), 16-8 (400.1/279.1[91.1], 16-16 (387.1/280[105]), 16-18 (415.2/280[370], 16-19 (414.1/279.2[91.1]. Standard (analyte of interest)/internal standard pairs utilized: GSK205/16-16, 16-8/16-16, 16-18/GSK205, 16-19/16-8.
Calibration samples (n = 6) were prepared by adding pure standard of the measured compound to tissue homogenate (tissue + 2-fold excess water, mass/vol) in the appropriate range needed for the particular dosing regime. Organs studied were analyzed alongside the study samples. […] Peak integration, calibration, and quantification was performed within Analyst software. […]

[3] = target: TRPV1 (Mus musculus, UniProt Q704Y3); assay: Ca++ imaging in N2a cells over-expressing TRPV1 (capsaicin); settings: 5 μM
Sequence of TRPV1 (Q704Y3 whole entry): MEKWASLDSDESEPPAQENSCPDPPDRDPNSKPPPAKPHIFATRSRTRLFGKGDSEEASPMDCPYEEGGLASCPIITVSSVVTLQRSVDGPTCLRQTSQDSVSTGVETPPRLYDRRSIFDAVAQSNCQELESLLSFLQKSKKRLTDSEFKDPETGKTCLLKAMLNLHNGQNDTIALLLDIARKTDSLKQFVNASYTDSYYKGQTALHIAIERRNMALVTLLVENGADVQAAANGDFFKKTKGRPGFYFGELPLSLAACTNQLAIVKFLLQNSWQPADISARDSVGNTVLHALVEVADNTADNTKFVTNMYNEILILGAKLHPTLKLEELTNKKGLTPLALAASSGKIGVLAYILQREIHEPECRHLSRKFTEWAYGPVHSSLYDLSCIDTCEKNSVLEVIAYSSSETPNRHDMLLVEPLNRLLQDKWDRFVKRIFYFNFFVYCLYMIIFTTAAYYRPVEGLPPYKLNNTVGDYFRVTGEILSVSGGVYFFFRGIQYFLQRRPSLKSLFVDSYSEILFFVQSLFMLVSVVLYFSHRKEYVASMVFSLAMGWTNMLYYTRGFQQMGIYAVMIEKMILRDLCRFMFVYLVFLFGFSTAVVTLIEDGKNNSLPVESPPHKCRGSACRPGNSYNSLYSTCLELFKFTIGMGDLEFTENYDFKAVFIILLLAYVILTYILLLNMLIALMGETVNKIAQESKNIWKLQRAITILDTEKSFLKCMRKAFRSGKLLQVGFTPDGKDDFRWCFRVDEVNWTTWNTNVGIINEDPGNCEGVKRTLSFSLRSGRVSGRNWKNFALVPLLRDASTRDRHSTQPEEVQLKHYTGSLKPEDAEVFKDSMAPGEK
Description: (A) Specificity vs TRPV1-3. […] Mean±SEM is shown, ≥100 cells per condition. […] Plot generated from averaged peak ∆Ca^++ concentration of ≥75 cells per data-point.
N2a cells were used for directed expression of TRP ion channels as described previously[13]. […] All other channels were native channels from mouse, eGFP was co-transfected. […] Ca^++ imaging was performed as described previously[13][14][34].

| SMILES | diminishing of pain behavior, delayed phase [1] [%] | pain behavior, delayed (late neural) phase [1] | concentration in fat and pancreas ([2]; after one hour) | inhibition of TRPV1 [3] | concentration in non-nervous tissue, especially liver and kidney, comparison of compounds ([2]; 1 h) | concentration at 6 h time-point compared to 1 h time-point ([2]; several organs) | concentration at 24 h time-point ([2]; several organs) |
| --- | --- | --- | --- | --- | --- | --- | --- |
| CN(CCc1ccc(Nc2nc(-c3ccccc3)cs2)cc1)Cc1ccccc1 [16-8] | > 50 | significant attenuation; also recorded: significant reduction | above its IC50 | did not inhibit | – | – | – |
| CCN(CCc1ccc(Nc2nc(-c3ccccc3)cs2)cc1)Cc1ccccc1 [16-19] | – | robust effect; also recorded: significant reduction | – | did not inhibit | higher concentrations | 10-20 fold | lower than at the 6 h but higher than at the 1 h time-point |
